According to patent publication US11033603B2, “Method for treating ocular diseases” (priority 2019, dated 2021):
Entries after “also recorded” stand apart in the source; their conditions may differ.

Legend:
[1] = test system: naturally-occurring diabetic macular edema in rhesus monkeys; assay: Fundus photography (FP) of NPDR related changes in spontaneous DME rhesus monkeys; type: in vivo, Macaca mulatta (Rhesus Macaque)
Source text: (§1) Evaluation of Efficacy of beauvericin at different doses for 60 days on improving naturally-occurring diabetic macular edema in rhesus monkeys, providing a basis for clinical trial dose design and safety study.
(§2) Macaca mulatta (Rhesus Macaque) are used in the evaluation.
Secondary Endpoints and Safety Parameters: • (1) Fundus photography (FP). To detect changes of hemorrhage, exudate or vessel lesion before and after treatment; and • (2) Drug effect on metabolism and lipid profiles, liver and kidney function.
Non-human primates (NHPs) are extremely similar to humans in physiological function and structure of eyes. […]
Inclusion Criteria • (1) Female, age 13-18 years (equals to 40-60 years old in human adults), 6-7 kg; • (2) Diabetic duration: over 3 years; • (3) DME of single/both eyes; • (4) DME: the retinal thickness measured by Heidelberg Spectralis OCT in recent half year and diagnosed by FP/FFA with Kowa VX-20 Fundus Camera; • (5) CRT≥260 μm (Central Foveal Thickness) and/or Average Thickness of ETDRS regions≥319 μm. […] Nondiabetic monkey: Average thickness of the retina in nondiabetic animals was 192±11 μm at the fovea, and 307±15 and 328±13 measured at a distance of 1.5 mm from fovea on the temporal and nasal sides, respectively. […]

[2] = test system: VEGF induced angiogenesis; assay: In vivo Matrigel plug angiogenesis assay; parameters: species or system B57l/6 mice; settings: mice; for VEGF induced angiogenesis in Matrigel plugs (images, FIG. 1): plugs taken out on Day 7; for Efficacy in inhibition of VEGF induced angiogenesis by hemoglobin level (FIG. 2), compared with Sorafenib: hemoglobin by Drabkin's reagent kit, Day 7
Source text: In Vivo Matrigel Plug Angiogenesis Assay
Matrigel plug is made from a gelatinous protein mixture secreted by Engelbreth-Holm-Swarm (EHS) mouse sarcoma cells (produced and marketed by Corning Life Sciences and BD Biosciences). Matrigel resembles the complex extracellular environment found in many tissues and is used by cell biologists as a substrate (basement membrane matrix) for culturing assay.
The test animals were 5 to 8-week-aged B57l/6 mice. The Matrigel was mixed with PBS at a ratio of 4:1 to obtain the Matrigel plug. The mice were administered with the Matrigel plugs containing 30 IU heparin and VEGF 150 ng/ml (500 ul/mouse), and then divided into four groups (4 mice in one group), treated with Beauvericin i.p. or orally (GYT-088 Group), Sorafenib (Sorafenib Group) as a positive control, VEGF alone (Vehicle), and without any treatment (Ctrl). After one day, the animals were administered with the sorafenib i.p. at a dosage of 30 mg/kg or Beauvericin i.p. at a dosage of 2.4 mg/kg (0.1c.c./mice/day), or were orally administered with the Beauvericin at a dosage of 24 mg/kg once per day for six days. On Day 7, the animals were sacrificed and the Matrigel plugs were taken out for observation of angiogenesis. The hemoglobin of each mouse was also measured by Drabkin's reagent kit.

[3] = test system: naturally-occurring diabetic macular edema in rhesus monkeys; assay: Retinal thickness by OCT in spontaneous DME rhesus monkeys; type: in vivo, Macaca mulatta (Rhesus Macaque); settings: for Macular Central Thickness, left eye / Macular Central Thickness, right eye / Fovea Thickness, left eye / Fovea Thickness, right eye: monkey #2003 (NPDR); for Macular Central Thickness, left eye: baseline 204; for Macular Central Thickness, right eye: baseline 210; for Fovea Thickness, left eye: baseline 257; for Fovea Thickness, right eye: baseline 260
Method: as §1, §2
Retinal Thickness by OCT. To Quantify Retinal Thickness Before and after Treatment.
Retinal thickness is evaluated by 2 methods using OCT: (1) at the fovea and 1.5 mm on either side of it (three point method), and (2) using a 52-point grid to determine the fraction of macula that had thicknesses in different thickness groupings (250-300, 301-350, 351-400 μm, etc.). This method was developed by the Primed team in collaboration with Prof. Dr. Timothy Kern, a renowned diabetic retinopathy expert from Case Western Reserve University. Refer to the ARVO 2018 Poster. Assessment of macular thickening in spontaneously diabetic rhesus monkeys.
Inclusion Criteria • (1) Female, age 13-18 years (equals to 40-60 years old in human adults), 6-7 kg; • (2) Diabetic duration: over 3 years; • (3) DME of single/both eyes; • (4) DME: the retinal thickness measured by Heidelberg Spectralis OCT in recent half year and diagnosed by FP/FFA with Kowa VX-20 Fundus Camera; • (5) CRT≥260 μm (Central Foveal Thickness) and/or Average Thickness of ETDRS regions≥319 μm. (Retinal Thickening is defined by Mean and SD of CRT and ETDRS thickness of normal monkeys). The retinal thickening is defined as thickness that exceeded the normal mean by 2 standard deviations. Nondiabetic monkey: Average thickness of the retina in nondiabetic animals was 192±11 μm at the fovea, and 307±15 and 328±13 measured at a distance of 1.5 mm from fovea on the temporal and nasal sides, respectively. This method was developed by the Primed team in collaboration with Prof. Dr. Timothy Kern, a renowned diabetic retinopathy expert from Case Western Reserve University. Refer to the ARVO 2018 Poster. Assessment of macular thickening in spontaneously diabetic rhesus monkeys; and • (6) with/without vessel leakage or non-perfusion area.
6 spontaneous DME rhesus monkeys (with medical record within one year) will be provided and 4 out of 6 monkeys will be enrolled in the Pre-study period (four weeks) for FA, FP, OCT and slit lamp examination as well as blood biochemistry before treatment. 4 Monkeys will be divided into two groups based on retinal thickness by OCT: • (1) Group 1, vehicle group, N=1; • (2) Group 2, test article group, N=3; (Route of administration: oral administration, once a day; Dosage: TBD).
Retinal thickness includes CST and ETDRS thickness. […]

[4] = Drug observed in the eyes after oral administration (FIG. 3); type: in vivo
[5] = monkey #2003, Day 14 versus baseline
[6] = monkey #2003, Day 56 versus baseline

Question: Which “NPDR related changes, FP” value ([1]; monkey #2003, D28, oral, once a day, baseline: hemorrhages) does the source give for `CC(C)[C@H]1OC(=O)[C@H](Cc2ccccc2)N(C)C(=O)[C@@H](C(C)C)OC(=O)[C@H](Cc2ccccc2)N(C)C(=O)[C@@H](C(C)C)OC(=O)[C@H](Cc2ccccc2)N(C)C1=O` [GYT-088, beauvericin] here?
Answer: Its value is “improved”.

Question: What about the “NPDR changes before and after dosing by FP” value ([1]; other animals of GYT-088 group (not #2003), any time points) of the same compound?
Answer: Its value is “No significant changes”.

Question: And the “VEGF induced angiogenesis in Matrigel plugs (images, FIG. 1)” value ([2]; Beauvericin i.p. 2.4 mg/kg once per day for six days)?
Answer: The value was “inhibited”.

Question: What about the “Efficacy in inhibition of VEGF induced angiogenesis by hemoglobin level (FIG. 2), compared with Sorafenib” value ([2]; listed as Beauvericin) of the same compound?
Answer: Its value is “higher efficacy”.

Question: What about the “Efficacy in inhibition of VEGF induced angiogenesis by hemoglobin level (FIG. 2), compared with Sorafenib” value ([2]; listed as beauvericin) of the same compound?
Answer: Its value is “higher efficacy; also recorded: even better than Sorafenib”.

Question: And the “Macular Central Thickness, left eye” value ([3]; D14)?
Answer: The value was 197 μm.

Question: What about the “Macular Central Thickness, right eye” value ([3]; D14) of the same compound?
Answer: The value was 202 μm.

Question: And the “Fovea Thickness, left eye” value ([3]; D14)?
Answer: The value was 249 μm.

Question: And the “Fovea Thickness, right eye” value ([3]; D14)?
Answer: The value was 251 μm.

Question: What about the “Macular Central Thickness, left eye” value ([3]; D28) of the same compound?
Answer: Its value is 199 μm.

Question: And the “Macular Central Thickness, right eye” value ([3]; D28)?
Answer: Its value is 206 μm.

Question: What about the “Fovea Thickness, left eye” value ([3]; D28) of the same compound?
Answer: The value was 253 μm.

Question: What about the “Fovea Thickness, right eye” value ([3]; D28) of the same compound?
Answer: Its value is 255 μm.

Question: What about the “Macular Central Thickness, left eye” value ([3]; D56 (Double dosing)) of the same compound?
Answer: The value was 200 μm.

Question: What about the “Macular Central Thickness, right eye” value ([3]; D56 (Double dosing)) of the same compound?
Answer: The value was 202 μm.

Question: And the “Fovea Thickness, left eye” value ([3]; D56 (Double dosing))?
Answer: The value was 254 μm.

Question: And the “Fovea Thickness, right eye” value ([3]; D56 (Double dosing))?
Answer: Its value is 255 μm.

Question: And the “Reduction of central macular thickness (CMT), left eye” value [3, 5]?
Answer: The value was 7 μm.

Question: And the “Reduction of central macular thickness (CMT), right eye” value [3, 5]?
Answer: The value was 8 μm.

Question: And the “Reduction of fovea thickness, left eye” value [3, 5]?
Answer: Its value is 8 μm.

Question: And the “Reduction of fovea thickness, right eye” value [3, 5]?
Answer: Its value is 9 μm.

Question: What about the “Reduction of central macular thickness, left eye” value [3, 6] of the same compound?
Answer: Its value is 6 μm.

Question: What about the “Reduction of central macular thickness, right eye” value [3, 6] of the same compound?
Answer: Its value is 8 μm.

Question: And the “Reduction of macular thickness, left eye” value [3, 6]?
Answer: Its value is 3 μm.

Question: And the “Reduction of macular thickness, right eye” value [3, 6]?
Answer: The value was 5 μm.

Question: What about the “Efficacy in Diabetic Macular Edema (conclusion)” value ([3]; rhesus monkeys, oral, once a day) of the same compound?
Answer: The value was “provided an efficacy in Diabetic Macular Edema”.

Question: What about the “Crossing of blood-brain barrier (BBB) and blood-retinal barrier (BRB) into extravascular space of retina and vitreous body” value [4] of the same compound?
Answer: The value was “can be cross the blood-brain barrier (BBB) and particularly the blood-retinal barrier (BRB)”.

Question: And the “Presence of test drug in the eyes of the animal” value [4]?
Answer: Its value is “observed in the eyes”.

Question: For `CNC(=O)c1cc(Oc2ccc(NC(=O)Nc3ccc(Cl)c(C(F)(F)F)c3)cc2)ccn1` [Sorafenib, reference compound], which “VEGF induced angiogenesis in Matrigel plugs (images, FIG. 1)” value ([2]; Sorafenib i.p. 30 mg/kg, positive control) is on record?
Answer: Its value is “inhibited”.
